Reference: PMC6321601 (Molecules, 2018)

Key:
[1] = test system: HepG-2 human hepatocellular carcinoma cells; assay: MTT assay, proliferation of HepG-2 cells; format: cell-based; settings: Homo sapiens, HepG2, 72 h incubation, mean of three independent experiments
Protocol: (§1) HepG-2 human hepatocellular carcinoma cells and L-O2 human normal liver cells were maintained in DMEM culture medium supplemented with 10% FBS at 37 °C under a humidified atmosphere with 5% CO2.
(§2) HepG-2 and L-O2 cells in logarithmic growth phase were seeded into a 96-well plate at 5 × 10^3/well/200 µL. After 12 h, compounds at different concentrations were added and incubated for 72 h at 37 °C, 5% CO2. Then, 20 µL MTT (5 mg/mL) was added into each well and incubated for 4 h. The supernatant was discarded, and the precipitate was dissolved with DMSO. The absorbance of the optical density (OD) at 570 nm was detected using a microplate reader and the IC50 was calculated with GraphPad Prism 5.

[2] = test system: L-O2 human normal liver cells; assay: MTT assay, toxicity against L-O2 normal cells; format: cell-based; settings: Homo sapiens, 72 h incubation, mean of three independent experiments
Protocol: as §1, §2

Row | Compound | IC50 [1] | IC50 [2]
1 | CC(=O)OC(C)(C)/C=C/C(=O)[C@](C)(O)C1[C@H](OC(=O)/C=C/c2ccc(C#N)cc2)C[C@@]2(C)C3CC=C4C(C[C@H](O)C(=O)C4(C)C)[C@]3(C)C(=O)C[C@]12C (stereo partly drawn) [Compound 3p, (2S,9R,13R,14S,16R)-17-((R,E)-6-Acetoxy-2-hydroxy-6-methyl-3-oxohept-4-en-2-yl)-2-hydroxy-4,4,9,13,14-pentamethyl-3,11-dioxo-2,3,4,7,8,9,10,11,12,13,14,15,16,17-tetradecahydro-1H-cyclopenta[a]phenanthren-16-yl (E)-3-(4-cyanophenyl)acrylate] | 2340 ± 910 nM | 1470 ± 360 nM
2 | COc1cc(/C=C/C(=O)O[C@@H]2C[C@@]3(C)C4CC=C5C(C[C@H](O)C(=O)C5(C)C)[C@]4(C)C(=O)C[C@]3(C)C2[C@@](C)(O)C(=O)/C=C/C(C)(C)OC(C)=O)cc(OC)c1 (stereo partly drawn) [Compound 3q, (2S,9R,13R,14S,16R)-17-((R,E)-6-Acetoxy-2-hydroxy-6-methyl-3-oxohept-4-en-2-yl)-2-hydroxy-4,4,9,13,14-pentamethyl-3,11-dioxo-2,3,4,7,8,9,10,11,12,13,14,15,16,17-tetradecahydro-1H-cyclopenta[a]phenanthren-16-yl (E)-3-(3,5-dimethoxyphenyl)acrylate] | 3850 ± 630 nM | 5250 ± 1630 nM
3 | CC(=O)OC(C)(C)/C=C/C(=O)[C@](C)(O)C1[C@H](OC(=O)/C=C/c2ccccc2)C[C@@]2(C)C3CC=C4C(C[C@H](OC(=O)/C=C/c5ccccc5)C(=O)C4(C)C)[C@]3(C)C(=O)C[C@]12C (stereo partly drawn) [Compound 4, (2S,9R,13R,14S,16R)-17-((R,E)-6-Acetoxy-2-hydroxy-6-methyl-3-oxohept-4-en-2-yl)-4,4,9,13,14-pentamethyl-3,11-dioxo-2,3,4,7,8,9,10,11,12,13,14,15,16,17-tetradecahydro-1H-cyclopenta[a]phenanthrene-2,16-diyl (2E,2′E)-bis(3-phenylacrylate)] | > 20000 nM | > 20000 nM
4 | CC(=O)OC(C)(C)C=CC(=O)C(C)(O)C1C(OC(=O)CCC(=O)NCCOc2no[n+]([O-])c2S(=O)(=O)c2ccccc2)CC2(C)C3CC=C4C(CC(O)C(=O)C4(C)C)C3(C)C(=O)CC12C [Compound 9a, 3-((l1-oxidanyl)(oxo)(phenyl)-l5-sulfanyl)-4-(2-(4-(((9R,13R,14S,16R)-17-((R,E)-6-acetoxy-2-hydroxy-6-methyl-3-oxohept-4-en-2-yl)-2-Hydroxy-4,4,9,13,14-pentamethyl-3,11-dioxo-2,3,4,7,8,9,10,11,12,13,14,15,16,17-tetradecahydro-1H-cyclopenta[a]phenanthren-16-yl)oxy)-4-oxobutanamido)ethoxy)-1,2,5-oxadiazole 2-oxide] | 460 ± 140 nM | 690 ± 430 nM
5 | CC(=O)OC(C)(C)/C=C/C(=O)[C@](C)(O)C1[C@H](OC(=O)CCC(=O)NCCCOc2no[n+]([O-])c2S(=O)(=O)c2ccccc2)C[C@@]2(C)C3CC=C4C(CC(O)C(=O)C4(C)C)[C@]3(C)C(=O)C[C@]12C (stereo partly drawn) [Compound 9b, 4-(3-(4-(((9R,13R,14S,16R)-17-((R,E)-6-Acetoxy-2-hydroxy-6-methyl-3-oxohept-4-en-2-yl)-2-hydroxy-4,4,9,13,14-pentamethyl-3,11-dioxo-2,3,4,7,8,9,10,11,12,13,14,15,16,17-tetradecahydro-1H-cyclopenta[a]phenanthren-16-yl)oxy)-4-oxobutanamido)propoxy)-3-(phenylsulfonyl)-1,2,5-oxadiazole 2-oxide] | 530 ± 10 nM | 800 ± 400 nM
6 | CC(=O)OC(C)(C)/C=C/C(=O)[C@](C)(O)C1[C@H](OC(=O)CCC(=O)N2CCN(CCOc3no[n+]([O-])c3S(=O)(=O)c3ccccc3)CC2)C[C@@]2(C)C3CC=C4C(CC(O)C(=O)C4(C)C)[C@]3(C)C(=O)C[C@]12C (stereo partly drawn) [Compound 9c, 4-(2-(4-(4-(((9R,13R,14S,16R)-17-((R,E)-6-Acetoxy-2-hydroxy-6-methyl-3-oxohept-4-en-2-yl)-2-hydroxy-4,4,9,13,14-pentamethyl-3,11-dioxo-2,3,4,7,8,9,10,11,12,13,14,15,16,17-tetradecahydro-1H-cyclopenta[a]phenanthren-16-yl)oxy)-4-oxobutanoyl)piperazin-1-yl)ethoxy)-3-(phenylsulfonyl)-1,2,5-oxadiazole 2-oxide] | 920 ± 160 nM | 2610 ± 1770 nM
7 | CC(=O)OC(C)(C)/C=C/C(=O)[C@](C)(O)C1[C@H](OC(=O)CCC(=O)OCCOc2no[n+]([O-])c2S(=O)(=O)c2ccccc2)C[C@@]2(C)C3CC=C4C(CC(O)C(=O)C4(C)C)[C@]3(C)C(=O)C[C@]12C (stereo partly drawn) [Compound 10a, 4-(2-((4-(((9R,13R,14S,16R)-17-((R,E)-6-Acetoxy-2-hydroxy-6-methyl-3-oxohept-4-en-2-yl)-2-hydroxy-4,4,9,13,14-pentamethyl-3,11-dioxo-2,3,4,7,8,9,10,11,12,13,14,15,16,17-tetradecahydro-1H-cyclopenta[a]phenanthren-16-yl)oxy)-4-oxobutanoyl)oxy)ethoxy)-3-(phenylsulfonyl)-1,2,5-oxadiazole 2-oxide] | 820 ± 330 nM | 2040 ± 670 nM
8 | CC(=O)OC(C)(C)/C=C/C(=O)[C@](C)(O)C1[C@H](OC(=O)CCC(=O)OCCCCOc2no[n+]([O-])c2S(=O)(=O)c2ccccc2)C[C@@]2(C)C3CC=C4C(CC(O)C(=O)C4(C)C)[C@]3(C)C(=O)C[C@]12C (stereo partly drawn) [Compound 10c, 4-(4-((4-(((9R,13R,14S,16R)-17-((R,E)-6-Acetoxy-2-hydroxy-6-methyl-3-oxohept-4-en-2-yl)-2-hydroxy-4,4,9,13,14-pentamethyl-3,11-dioxo-2,3,4,7,8,9,10,11,12,13,14,15,16,17-tetradecahydro-1H-cyclopenta[a]phenanthren-16-yl)oxy)-4-oxobutanoyl)oxy)butoxy)-3-(phenylsulfonyl)-1,2,5-oxadiazole 2-oxide] | 520 ± 90 nM | 2100 ± 1410 nM
9 | CC(=O)OC(C)(C)/C=C/C(=O)[C@](C)(O)C1[C@H](OC(=O)CCC(=O)OCCCCCOc2no[n+]([O-])c2S(=O)(=O)c2ccccc2)C[C@@]2(C)C3CC=C4C(CC(O)C(=O)C4(C)C)[C@]3(C)C(=O)C[C@]12C (stereo partly drawn) [Compound 10d, 4-((5-((4-(((9R,13R,14S,16R)-17-((R,E)-6-Acetoxy-2-hydroxy-6-methyl-3-oxohept-4-en-2-yl)-2-hydroxy-4,4,9,13,14-pentamethyl-3,11-dioxo-2,3,4,7,8,9,10,11,12,13,14,15,16,17-tetradecahydro-1H-cyclopenta[a]phenanthren-16-yl)oxy)-4-oxobutanoyl)oxy)pentyl)oxy)-3-(phenylsulfonyl)-1,2,5-oxadiazole 2-oxide] | 640 ± 260 nM | 2620 ± 520 nM
10 | CC(=O)OC(C)(C)/C=C/C(=O)[C@](C)(O)C1[C@H](OC(=O)CCC(=O)OCCCCCCOc2no[n+]([O-])c2S(=O)(=O)c2ccccc2)C[C@@]2(C)C3CC=C4C(CC(O)C(=O)C4(C)C)[C@]3(C)C(=O)C[C@]12C (stereo partly drawn) [Compound 10e, 4-((6-((4-(((9R,13R,14S,16R)-17-((R,E)-6-Acetoxy-2-hydroxy-6-methyl-3-oxohept-4-en-2-yl)-2-hydroxy-4,4,9,13,14-pentamethyl-3,11-dioxo-2,3,4,7,8,9,10,11,12,13,14,15,16,17-tetradecahydro-1H-cyclopenta[a]phenanthren-16-yl)oxy)-4-oxobutanoyl)oxy)hexyl)oxy)-3-(phenylsulfonyl)-1,2,5-oxadiazole 2-oxide] | 1150 ± 240 nM | 3210 ± 90 nM
11 | CC(=O)OC(C)(C)/C=C/C(=O)[C@](C)(O)C1[C@H](OC(=O)CCC(=O)OCCCCCCCOc2no[n+]([O-])c2S(=O)(=O)c2ccccc2)C[C@@]2(C)C3CC=C4C(CC(O)C(=O)C4(C)C)[C@]3(C)C(=O)C[C@]12C (stereo partly drawn) [Compound 10f, 4-((7-((4-(((9R,13R,14S,16R)-17-((R,E)-6-Acetoxy-2-hydroxy-6-methyl-3-oxohept-4-en-2-yl)-2-hydroxy-4,4,9,13,14-pentamethyl-3,11-dioxo-2,3,4,7,8,9,10,11,12,13,14,15,16,17-tetradecahydro-1H-cyclopenta[a]phenanthren-16-yl)oxy)-4-oxobutanoyl)oxy)heptyl)oxy)-3-(phenylsulfonyl)-1,2,5-oxadiazole 2-oxide] | 830 ± 380 nM | 3250 ± 400 nM
12 | CC(=O)OC(C)(C)/C=C/C(=O)[C@](C)(O)C1[C@H](OC(=O)CCC(=O)OCCCCCCCCOc2no[n+]([O-])c2S(=O)(=O)c2ccccc2)C[C@@]2(C)C3CC=C4C(CC(O)C(=O)C4(C)C)[C@]3(C)C(=O)C[C@]12C (stereo partly drawn) [Compound 10g, 4-((8-((4-(((9R,13R,14S,16R)-17-((R,E)-6-Acetoxy-2-hydroxy-6-methyl-3-oxohept-4-en-2-yl)-2-hydroxy-4,4,9,13,14-pentamethyl-3,11-dioxo-2,3,4,7,8,9,10,11,12,13,14,15,16,17-tetradecahydro-1H-cyclopenta[a]phenanthren-16-yl)oxy)-4-oxobutanoyl)oxy)octyl)oxy)-3-(phenylsulfonyl)-1,2,5-oxadiazole 2-oxide] | 1190 ± 550 nM | 4290 ± 660 nM
13 | CC(=O)OC(C)(C)/C=C/C(=O)[C@](C)(O)C1[C@H](OC(=O)CCC(=O)OCCCCCCCCCOc2no[n+]([O-])c2S(=O)(=O)c2ccccc2)C[C@@]2(C)C3CC=C4C(CC(O)C(=O)C4(C)C)[C@]3(C)C(=O)C[C@]12C (stereo partly drawn) [Compound 10h, 4-((9-((4-(((9R,13R,14S,16R)-17-((R,E)-6-Acetoxy-2-hydroxy-6-methyl-3-oxohept-4-en-2-yl)-2-hydroxy-4,4,9,13,14-pentamethyl-3,11-dioxo-2,3,4,7,8,9,10,11,12,13,14,15,16,17-tetradecahydro-1H-cyclopenta[a]phenanthren-16-yl)oxy)-4-oxobutanoyl)oxy)nonyl)oxy)-3-(phenylsulfonyl)-1,2,5-oxadiazole 2-oxide] | 1150 ± 240 nM | 1170 ± 80 nM
